Laboratory results as given in paper PMC10464297, “Reevaluation of bromodomain ligands targeting BAZ2A” (Protein Science : A Publication of the Protein Society, 2023).

Tests used:
[1] = test system: first bromodomain of BRD4; parameters: method as in Hay et al., [2014]; Picaud et al., [2015]; settings: ref Hay et al., [2014]; Picaud et al., [2015]; cited from earlier work
BAZ2A bromodomain [2] = target: T1, BAZ2A bromodomain (Homo sapiens, UniProt Q9UIF9); assay: Screening by co‐crystallization with BAZ2A bromodomain; type: binding
T1 construct: BAZ2A and BAZ2B bromodomains were produced; made in house
T1 sequence (Q9UIF9 1793-1897 limits assumed): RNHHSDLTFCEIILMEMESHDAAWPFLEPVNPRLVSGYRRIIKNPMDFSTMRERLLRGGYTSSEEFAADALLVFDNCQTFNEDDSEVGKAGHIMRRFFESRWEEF
Source text: (§1) BAZ2A and BAZ2B bromodomains were produced and their activity evaluated by AlphaScreen as previously reported (Dalle Vedove et al., [2018]; Spiliotopoulos et al., [2017]). BAZ2A bromodomain was crystallized as detailed in an earlier work (Spiliotopoulos et al., [2017]). Diffraction data were collected at the Elettra Synchrotron Light Source (Trieste, Italy), XRD1 and XRD2 beamlines, and the European Synchrotron Radiation Facility (ESRF, Grenoble, France), ID30A‐1/MASSIF‐1 beamline. Data were processed and structures were solved as described elsewhere (Dalle Vedove et al., [2018]). Chemical synthesis of compounds UP39 and UZH23 has already been reported (Unzue et al., [2016]; Zhu et al., [2018]). A detailed description of cell culture methods and ITC protocol is provided in the Supporting Information.

BAZ2B bromodomain = target: T2, BAZ2B bromodomain (Homo sapiens, UniProt Q9UIF8); assay: AlphaScreen binding competition, BAZ2B bromodomain; settings: compound at 100 μM
T2 construct: BAZ2A and BAZ2B bromodomains were produced; made in house
T2 sequence (Q9UIF8 2060-2164 limits assumed): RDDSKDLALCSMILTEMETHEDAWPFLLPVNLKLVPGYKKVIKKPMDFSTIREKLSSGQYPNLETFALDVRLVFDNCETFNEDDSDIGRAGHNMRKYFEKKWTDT
Source text: as §1
(§2) Figure S3. AlphaScreen competition binding assay for compounds UP39 and UZH23. The specific binding to the acetylated peptide relative to the control DMSO (y-axis) is plotted against the corresponding compound concentration in µM in log10 scale (x-axis).
(§3) (1 picture or pasted object on this page, not shown here)

BAZ2A bromodomain [3] = target: T1, BAZ2A bromodomain; assay: AlphaScreen binding competition, BAZ2A bromodomain; settings: compound at 100 μM
Source text: as §1, §2, §3

BRD9 = settings: ref Ycas et al., [2020]; read-out: K D BRD9; cited from earlier work
CECR2 bromodomain = settings: ref Ycas et al., [2020]; read-out: K D CECR2; cited from earlier work
BPTF = settings: ref Ycas et al., [2020]; read-out: K D BPTF; cited from earlier work
BAZ2A bromodomain [4] = target: T1, BAZ2A bromodomain; assay: Isothermal titration calorimetry (ITC) on BAZ2A; type: binding
Source text: It is worth noticing however that these values may be slightly overestimated. The presence of 0.25% DMSO in the ITC experiments leads to less favorable K D values as DMSO competes for binding to the conserved Asn (Lolli & Battistutta, [2013]; Navratilova et al., [2016]). […] Indeed, the change in sign of the entropic term observed for TP‐238 binding to BAZ2A (compared to BPTF and CECR2) closely resembles the effect reported for crotonyllysine binding to the TAF1 bromodomain (compared to Kac), also displacing an additional water molecule from the binding pocket (Flynn et al., [2015]). […]
Isothermal Titration Calorimetry
ITC experiments were performed using an MicroCal PEAQ-IT C microcalorimeter (Malvern Panalytical, UK) at 25°C with a stirring speed of 750 rpm in 20mM Tris pH 7. 8, 0. 2 M NaCl, 0. 2 mM TCEP and 0. 25% DMSO. For each experiment, one 0. 4 µl injection followed by eighteen 2 µl injections have been performed, with 150 seconds separating each injectio n. The inhibitors were tested at 70 µM in the cell with His -Baz2A in the syringe at 1 mM. A blank run with only the buffer was carried out (Suppl. Fig. S6). Data analysis was done with PE A Q-ITC Analysis software , fitting the curve with the ‘one site’ model.

located in BAZ2A Kac pocket by co‐crystallization (BAZ2A bromodomain [2])	% residual binding BAZ2B (100 μM) (BAZ2B bromodomain) [%]	% residual binding BAZ2A (100 μM) (BAZ2A bromodomain [3]) [%]	Kd (BAZ2A bromodomain [4]; 25°C, 0.25% DMSO, read-out: K D BAZ2A) [nM]	TΔS (BAZ2A bromodomain [4]; BAZ2A) [kcal/mol]	ΔG (BAZ2A bromodomain [4]; BAZ2A) [kcal/mol]	ΔH (BAZ2A bromodomain [4]; BAZ2A) [kcal/mol]	N (sites) (BAZ2A bromodomain [4]; BAZ2A, one site model)	SMILES	off‐target activity on the first bromodomain of BRD4 [1]	Kd (BRD9) [nM]	Kd (CECR2 bromodomain) [nM]	Kd (BPTF) [nM]
inability to act as BAZ2A inhibitors	92 ± 6	95 ± 4	–	–	–	–	–	COc1ccc(CCc2nc3cc(-c4c(C)noc4C)ccc3n2C[C@H](C)N2CCOCC2)cc1Cl [SGC‐CBP30]	weak off‐target activity	–	–	–
located in the BAZ2A Kac pocket	77 ± 2	81 ± 3	108000 ± 6000	2.68	-5.41	-2.73 ± 0.07	1	CN(C)CCCOc1ccc(-c2cc(NCCCn3cccn3)nc(S(C)(=O)=O)n2)cc1 [TP‐238]	–	1100	10	120
inability to act as BAZ2A inhibitors	96 ± 1	98 ± 2	–	–	–	–	–	CCC(=O)N1CCOc2c(cc(-c3ccc(OC)c(OC)c3)cc2OC[C@H]2CCCN(C)C2)C1 [I‐CBP112]	weak off‐target activity	–	–	–
